Measurements taken from patent US8729061B2, “Pyrrolidine derivatives” (Hoffmann-La Roche Inc., priority 2011, dated 2014).

Tests used:
Format in all cases: biochemical
[1] = target: human Cat B (Homo sapiens (Human), UniProt P07858); test: Cathepsin enzyme inhibition assay (fluorogenic peptide substrate), Cat B; conditions: enzyme 1 nM, substrate Z-Val-Val-Arg-AMC 20 μM, pH 6.5
In short: (§1)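 Fluorogenic cleavage assay run separately on human and mouse enzymes, each at 1 nM, in 100 mM potassium phosphate pH 6.5 with 5 mM EDTA, 5 mM DTT and 0.001% Triton X-100. Reaction started with 20 μM Z-Val-Val-Arg-AMC, or Z-Leu-Arg-AMC for Cat K; AMC read at ex 360/em 465 nm. IC50 calculated by standard methods.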

[2] = target: human Cathepsin S (Homo sapiens (Human), UniProt P25774); test: Cathepsin enzyme inhibition assay (fluorogenic peptide substrate), Cat S; conditions: enzyme 1 nM, substrate Z-Val-Val-Arg-AMC 20 μM, pH 6.5
Chain of human Cathepsin S (P25774 115-331): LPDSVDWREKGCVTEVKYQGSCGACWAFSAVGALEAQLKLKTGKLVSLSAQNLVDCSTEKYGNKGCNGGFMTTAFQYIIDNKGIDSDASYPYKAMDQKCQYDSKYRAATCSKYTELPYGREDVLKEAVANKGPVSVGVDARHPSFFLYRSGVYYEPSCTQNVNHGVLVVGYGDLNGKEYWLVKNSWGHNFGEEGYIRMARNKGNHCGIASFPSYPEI
In short: as §1

[3] = target: human Cat K (Homo sapiens (Human), UniProt P43235); test: Cathepsin enzyme inhibition assay (fluorogenic peptide substrate), Cat K; conditions: enzyme 1 nM, substrate Z-Leu-Arg-AMC 20 μM, pH 6.5
Chain of human Cat K (P43235 115-329): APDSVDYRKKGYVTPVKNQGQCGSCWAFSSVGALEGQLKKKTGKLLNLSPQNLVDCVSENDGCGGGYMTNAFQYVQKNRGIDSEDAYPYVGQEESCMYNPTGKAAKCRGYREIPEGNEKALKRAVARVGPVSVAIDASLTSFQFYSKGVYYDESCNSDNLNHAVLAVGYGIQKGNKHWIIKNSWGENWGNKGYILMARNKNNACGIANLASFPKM
In short: as §1

[4] = target: human Cat L (Homo sapiens (Human), UniProt P07711); test: Cathepsin enzyme inhibition assay (fluorogenic peptide substrate), Cat L; conditions: enzyme 1 nM, substrate Z-Val-Val-Arg-AMC 20 μM, pH 6.5
Chain of human Cat L (P07711 114-333): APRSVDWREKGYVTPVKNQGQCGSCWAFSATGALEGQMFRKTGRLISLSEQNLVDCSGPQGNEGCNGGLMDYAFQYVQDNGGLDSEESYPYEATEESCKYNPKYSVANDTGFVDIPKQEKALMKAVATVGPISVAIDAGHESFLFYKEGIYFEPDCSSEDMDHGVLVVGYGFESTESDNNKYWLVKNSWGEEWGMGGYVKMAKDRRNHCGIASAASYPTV
In short: as §1

Row | IC50 [1] [nM] | IC50 [2] [nM] | IC50 [3] [nM] | IC50 [4] [nM] | SMILES
1 | 61.6 | 0.876 | 56.5 | 2.6 | CC[C@H](NC(=O)[C@@H]1C[C@@H](S(=O)(=O)c2ccccc2Cl)CN1C(=O)C1(c2ccc(Cl)cc2)CC1)C(=O)C(=O)NCC(C)C [Example 55, (2S,4R)-1-(1-(4-chlorophenyl)cyclopropanecarbonyl)-4-(2-chlorophenylsulfonyl)-N—((S)-1-(isobutylamino)-1,2-dioxopentan-3-yl)pyrrolidine-2-carboxamide]
2 | 101 | 2.57 | 65.4 | 20.6 | CC[C@H](NC(=O)[C@@H]1C[C@@H](S(=O)(=O)c2ccc(N3CCOCC3)cc2Cl)CN1C(=O)C1(c2ccc(Cl)cc2)CC1)C(=O)C(=O)NC1CC1 [Example 56, (2S,4R)-4-(2-chloro-4-morpholinophenylsulfonyl)-1-(1-(4-chlorophenyl)cyclopropanecarbonyl)-N—((S)-1-(cyclopropylamino)-1,2-dioxopentan-3-yl)pyrrolidine-2-carboxamide]
3 | 93.2 | 3.33 | 75 | 24.9 | CCC[C@H](NC(=O)[C@@H]1C[C@@H](S(=O)(=O)c2ccc(N3CCOCC3)cc2Cl)CN1C(=O)C1(c2ccc(Cl)cc2)CC1)C(=O)C(=O)NC1CC1 [Example 57, (2S,4R)-4-(2-chloro-4-morpholinophenylsulfonyl)-1-(1-(4-chlorophenyl)cyclopropanecarbonyl)-N—((S)-1-(cyclopropylamino)-1,2-dioxohexan-3-yl)pyrrolidine-2-carboxamide]
4 | 518 | 2.61 | 141 | 6.4 | CC(C)C[C@H](NC(=O)[C@@H]1C[C@@H](S(=O)(=O)c2ccccc2Cl)CN1C(=O)C1(c2ncc(Cl)cc2F)CC1)C(=O)C(=O)NC1CC1 [Example 59, (2S,4R)-1-(1-(5-chloro-3-fluoropyridin-2-yl)cyclopropanecarbonyl)-4-(2-chlorophenylsulfonyl)-N—((S)-1-(cyclopropylamino)-5-methyl-1,2-dioxohexan-3-yl)pyrrolidine-2-carboxamide]
5 | 354 | 2.87 | 144 | 6.1 | CCCCNC(=O)C(=O)[C@H](CC)NC(=O)[C@@H]1C[C@@H](S(=O)(=O)c2ccccc2Cl)CN1C(=O)C1(c2ncc(Cl)cc2F)CC1 [Example 60, (2S,4R)—N—((S)-1-(butylamino)-1,2-dioxopentan-3-yl)-1-(1-(5-chloro-3-fluoropyridin-2-yl)cyclopropanecarbonyl)-4-(2-chlorophenylsulfonyl)pyrrolidine-2-carboxamide]
6 | 172 | 2.93 | 106 | 6.2 | CCCCNC(=O)C(=O)[C@H](CCC)NC(=O)[C@@H]1C[C@@H](S(=O)(=O)c2ccccc2Cl)CN1C(=O)C1(c2ncc(Cl)cc2F)CC1 [Example 61, (2S,4R)—N—((S)-1-(butylamino)-1,2-dioxohexan-3-yl)-1-(1-(5-chloro-3-fluoropyridin-2-yl)cyclopropanecarbonyl)-4-(2-chlorophenylsulfonyl)pyrrolidine-2-carboxamide]
7 | 120 | 2.35 | 41.2 | 6 | CCC[C@H](NC(=O)[C@@H]1C[C@@H](S(=O)(=O)c2ccccc2Cl)CN1C(=O)C1(c2ncc(Cl)cc2F)CC1)C(=O)C(=O)NCc1ccccc1 [Example 62, (2S,4R)—N—((S)-1-(benzylamino)-1,2-dioxohexan-3-yl)-1-(1-(5-chloro-3-fluoropyridin-2-yl)cyclopropanecarbonyl)-4-(2-chlorophenylsulfonyl)pyrrolidine-2-carboxamide]
